This is an account of results in PMC7823712, “Synthesis and Antiplasmodial Activity of Novel Bioinspired Imidazolidinedione Derivatives” (Biomolecules, 2020).

Each structure is given as a SMILES string. Values after ≈ are worked out from the molar mass of the structure shown. Values joined by “and” are separate entries in the source; they are usually repeats but may differ in a detail not shown here. Identical values can stand only once. Like-named read-outs stand apart in the source and are kept apart here.

In one data set the test system is HaCaT cells. The experiment in a line: Cytotoxicity assay (MTT) on HaCaT cells. In kind it is cell-based. As to conditions: Homo sapiens, 48 h. On the procedure:
HaCaT cells were cultured in DMEM medium with 10% FBS, GlutaMAX™ and antibiotic-antimycotic. Cells were cultured at 37 °C in a humidified atmosphere containing 5% CO2. To evaluate the cytotoxic activity of tested compounds, the MTT assay was used. Cells (5 × 10^3 cells/well) were plated into a 96-multiwell plate and incubated for 24 h, to grow as monolayers. Subsequently, different doses of compounds dissolved in DMSO were added to each well and mixed. Plates were then incubated for 48 h. The culture media with tested samples were then removed, and cells in each well were treated with 50 μL of complete culture medium with MTT. After 4 h of incubation in a cell culture incubator, MTT solution was replaced with DMSO (50 μL/well) and plates were agitated for 5 min to dissolve the formazan salts. Formazan absorbance was measured at 570 nm, with background measured at 630 nm, using an Asys UVM 340 Microplate Reader (Cambridge, UK). Results were expressed as IC50 values, with respect to the control (not treated cells).

Data set [1] concerns P. falciparum W2 (CQ-resistant) strain. The data set is described as follows: P. falciparum drug susceptibility assay (pLDH), W2 strain. In kind it is cell-based, Plasmodium falciparum. As to conditions: for IC50: Plasmodium falciparum, read-out: P. falciparum IC50 W2; for SI W2: SI = IC50 HaCaT/IC50 P. falciparum strain; for RI: RI = IC50 CQ resistant P. falciparum strain/IC50 CQ sensitive P. falciparum strain. On the procedure:
Plasmodium falciparum cultures were carried out according to Trager and Jensen, with slight modifications. The CQ-susceptible strain D10 and the CQ-resistant strain W2 were maintained at 5% hematocrit (human type A-positive red blood cells) in RPMI 1640 (EuroClone, Milan, Italy) medium with the addition of 1% AlbuMax (Invitrogen, Milan, Italy), 0.01% hypoxanthine, 20 mM Hepes, and 2 mM glutamine. All the cultures were maintained at 37 °C in a standard gas mixture consisting of 1% O2, 5% CO2, and 94% N2. Compounds were dissolved in DMSO and then diluted with medium to achieve the required concentrations (final DMSO concentration < 1%, which is non-toxic to the parasite). Drugs were placed in 96-well flat-bottomed microplates starting from the concentration of 20 µg/mL and 8 serial two-fold dilutions were made. Asynchronous cultures with parasitaemia of 1–1.5% and 1% final hematocrit were aliquoted into the plates and incubated for 72 h at 37 °C. Parasite growth was determined spectrophotometrically (OD650) by measuring the activity of the parasite lactate dehydrogenase (pLDH), according to a modified version of the method of Makler in control and drug-treated cultures. The antimalarial activity is expressed as 50% inhibitory concentrations (IC50); […]

The test system of data set [2] is P. falciparum D10 (CQ-sensitive) strain. The experiment in a line: P. falciparum drug susceptibility assay (pLDH), D10 strain. The class given is cell-based, Plasmodium falciparum. The conditions noted are these: for IC50: Plasmodium falciparum, read-out: P. falciparum IC50 D10; for SI D10: SI = IC50 HaCaT/IC50 P. falciparum strain. The method, then:
Plasmodium falciparum cultures were carried out according to Trager and Jensen, with slight modifications. […] Drugs were placed in 96-well flat-bottomed microplates starting from the concentration of 20 µg/mL and 8 serial two-fold dilutions were made. […] Parasite growth was determined spectrophotometrically (OD650) by measuring the activity of the parasite lactate dehydrogenase (pLDH), according to a modified version of the method of Makler in control and drug-treated cultures.

The test system of data set [3] is FcM29-Cameroon, a high chloroquine-resistant strain of P. falciparum. Also on record: method as in PMID 21612900. As to conditions: cited from earlier work.
Data set [4] has as its system Plasmodium falciparum 3D7. Also on record: method as in PMID 25797165. The conditions noted are these: read-out: IC50 against Plasmodium falciparum 3D7; cited from earlier work.
The next data set can be described thus: Solubility in water. The conditions noted are these: statement in words. The class given is physicochemical.
A further data set is described as follows: Hemolysis assay. The class given is cell-based. As to conditions: human erythrocyte suspension, fresh human erythrocytes. On the procedure: The study protocol was approved by the Bioethics Commission at the Lower Silesian Medical Chamber (1/PNHAB/2018). Hemolytic activity was estimated by the measurement of hemoglobin release from human erythrocyte suspensions after incubation with (5), (6), (7) and (8), as previously described. Compouds dissolved in DMSO were added in a volume corresponding to a final concentration of 20 µg/mL in the sample (DMSO was added in an identical volume). Negative and positive controls were also determined. Hemolysis (H) was calculated according to the following formula:H (%) = [(Asample − Anegative control)/(Apositive control − Anegative control)] × 100(1) where Asample, Anegative control, and Apositive control represent the absorbances of the sample, and negative (erythrocytes in PBS buffer) and positive (erythrocytes in distilled water) controls, respectively.

The subject of a further data set is W2 strain. The arrangement: method as in PMID 16190773. As to conditions: cited from earlier work.
In data set [5] the test system is chloroquine-resistant Dd2 strain. Also on record: method as in PMID 25797165. As to conditions: compared with 3D7; cited from earlier work.
Where [6] appears, read: W2 (CQ-resistant), 72 h, pLDH, IC50 expressed in µM.
[7] abbreviates: D10 (CQ-sensitive), 72 h, pLDH, IC50 expressed in µM.

What is called IC50 is the concentration that inhibits the measured activity by half. On to `O=C1NC2(CCc3ccccc32)C(=O)N1CCCCCN1CCN(C2Cc3ccccc3C2)CC1` (racemic) [(8), (R,S)-1-(5-(4-(2,3-Dihydro-1H-inden-2-yl)piperazin-1-yl)pentyl)-2′,3′-dihydrospiro[imidazolidine-4,1′-indene]-2,5-dione], for which the IC50 in the data set on HaCaT cells is 22.7 µg/mL; in the data set on HaCaT cells (IC50 expressed in µM), 48.1 ± 2.49 µM; in data set [1] (setting [6]) it was 12 ± 4.12 µM; in [1] (W2 (CQ-resistant), 72 h, pLDH), 5.65 ± 1.95 µg/mL; in [2] (D10 (CQ-sensitive), 72 h, pLDH), more than 10 µg/mL. The “SI W2” value in data set [1] is on record as 4.02.
Regarding `O=C1NC2(CCc3ccccc32)C(=O)N1CCCCCN1CCN(c2nc3ccccc3[nH]2)CC1` (racemic) [(6), (R,S)-1-(5-(4-(1H-Benzo[d]imidazol-2-yl)piperazin-1-yl)pentyl)-2′,3′-dihydrospiro[imidazolidine-4,1′-indene]-2,5-dione], the IC50 with HaCaT cells was found to be 27.4 µg/mL; with HaCaT cells (IC50 expressed in µM), 58 ± 1.48 µM; in data set [1] (setting [6]), 10.1 ± 0.2 µM; in data set [1] (W2 (CQ-resistant), 72 h, pLDH), 4.78 ± 0.0974 µg/mL; in data set [2] (setting [7]), 17.5 ± 1.55 µM; in data set [2] (D10 (CQ-sensitive), 72 h, pLDH) it was 8.27 ± 0.737 µg/mL. This compound registered an RI in data set [1] of 0.58. The “SI W2” value in data set [1] is 5.73. Further, the “SI D10” value in data set [2] worked out at 3.31.
`O=C1NC2(CCCc3ccccc32)C(=O)N1CCCCCN1CCN(C2Cc3ccccc3C2)CC1` (racemic) [(7), (R,S)-1-(5-(4-(2,3-Dihydro-1H-inden-2-yl)piperazin-1-yl)pentyl)-3′,4′-dihydro-2′H-spiro[imidazolidine-4,1′-naphthalene]-2,5-dione]: the IC50 is 30.5 µg/mL in the data set on HaCaT cells; 62.8 ± 2.12 µM in the data set with HaCaT cells (IC50 expressed in µM); 8.93 ± 1.35 µM in data set [1] (setting [6]); 4.35 ± 0.659 µg/mL in data set [1] (W2 (CQ-resistant), 72 h, pLDH); 19.9 ± 0.29 µM in [2] (setting [7]); 9.66 ± 0.141 µg/mL in data set [2] (D10 (CQ-sensitive), 72 h, pLDH). The RI in data set [1] worked out at 0.45. Also, the “SI W2” value in data set [1] was found to be 7.02. In addition, the “SI D10” value in data set [2] amounted to 3.16.
Take `CN1C(=N)N(C)/C(=C/c2c[nH]c3ccccc23)C1=O` [Aplysinopsin]: the “IC50 against FcM29-Cameroon” value in data set [3] was 0.43 µg/mL (≈ 1.69 µM). Moreover, the IC50 in data set [3] (read-out: IC50 against FcM29-Cameroon) was 1.69 µM.
On to `CCN1C(=O)N(CCC(C)C)C2(CCN(Cc3cc(Cl)c(Cl)cc3O)CC2)C1=O` [CWHM-505], for which, in data set [4], the half-maximal inhibitory concentration (IC50) is 0.099 µM.
Regarding `O=C1NC2(CCCc3ccccc32)C(=O)N1CCCCCN1CCN(c2nc3ccccc3[nH]2)CC1` (racemic) [Compound (5), (R,S)-1-(5-(4-(1H-Benzo[d]imidazol-2-yl)piperazin-1-yl)pentyl)-3′,4′-dihydro-2′H-spiro[imidazolidine-4,1′-naphthalene]-2,5-dione], the IC50 came out at 20.2 µg/mL in the data set with HaCaT cells; 41.6 ± 2.43 µM in the data set with HaCaT cells (IC50 expressed in µM); 4.98 ± 0.52 µM in data set [1] (setting [6]); 2.42 ± 0.255 µg/mL in data set [1] (W2 (CQ-resistant), 72 h, pLDH); 12.75 ± 0.02 µM in [2] (setting [7]); 6.2 ± 0.892 µg/mL in data set [2] (D10 (CQ-sensitive), 72 h, pLDH). Moreover, the RI in data set [1] is 0.39. In data set [1], the “SI W2” value is reported as 8.34. Besides, the solubility in water entry in the data set “Solubility in water” is reported as “low solubility in water”. In the data set “Hemolysis assay”, this compound registered a hemolysis at 30 min, 20 µg/mL of 5.6%. Moreover, the “SI D10” value in data set [2] is given as 3.26.
`CCN(CC)CCCC(C)Nc1ccnc2cc(Cl)ccc12` (stereo not shown) [CQ, Chloroquine, reference compound]: the IC50 in data set [1] (W2, 72 h) was 0.103 µg/mL and 200 nM; in data set [2] (D10, 72 h), 0.00764 µg/mL and 10 nM.
As for `CC(C)C1C(=O)C(=O)N/C1=N/C(=N)Nc1ccc(Cl)c(Cl)c1` (stereo not shown) [WR182393], the “IC50 for W2” value in the data set with W2 strain is 2.66469 µg/mL.
On to `CCN1C(=O)N(CCC(C)C)C2(CCN(Cc3cc(Cl)ccc3O)CC2)C1=O` [CWHM-123, 8-(5-chloro-2-hydroxybenzyl)-3-ethyl-1-isopentyl-1,3,8-triazaspiro[4.5]decane-2,4-dione], for which the concentration for half-maximal inhibition (IC50) in data set [4] was 0.31 µM. The “potency on the chloroquine-resistant Dd2 strain” value in [5] is recorded as “equivalent potency”.
